# Reference: article PMC12930396, “Positive modulators of N-methyl-D-aspartate receptor: structure–activity relationship study on steroidal C-17 and C-20 oxime ethers” (RSC Advances, 2026)
# Entries after “also recorded” stand apart in the source; their conditions may differ.
# Columns and labels:
# [1] = molecular target: GluN1/GluN2B receptors; conditions: cited from earlier work; for EC50: read-out: EC50, potentiation of GluN1/GluN2B receptor responses
# [2] = molecular target: T1, GluN1/GluN2B receptors (Rattus norvegicus, UniProt P35439+Q00960); assay: Patch-clamp: modulation of glutamate-induced currents of recombinant GluN1/GluN2B receptors expressed in HEK293 cells; assay type: cell-based; conditions: for h ± SEM (apparent Hill coefficient): concentration-response fit; for h ± SEM (apparent Hill coefficient) / EC50 / Emax: mean ± SEM; for EC50: half-maximal potentiation of currents evoked by 1 µM glutamate; for EC50 / Emax / inhibition at 3 µM: HEK293; for Emax: maximal potentiation of currents evoked by 1 µM glutamate and 30 µM glycine; for Modulatory profile at NMDARs: GluN1/GluN2B in HEK293; for inhibition at 3 µM: at 3 µM compound, read-out: NAM effect (degree of inhibition); for inhibition at 3 µM / PAM effect (degree of potentiation): 1 µM glutamate
# T1 construct: expressed in transfected cells; host or cells: HEK293 cells (ATCC No. CRL-1573)
# T1 sequence (Q00960 27-1482, other chains not shown): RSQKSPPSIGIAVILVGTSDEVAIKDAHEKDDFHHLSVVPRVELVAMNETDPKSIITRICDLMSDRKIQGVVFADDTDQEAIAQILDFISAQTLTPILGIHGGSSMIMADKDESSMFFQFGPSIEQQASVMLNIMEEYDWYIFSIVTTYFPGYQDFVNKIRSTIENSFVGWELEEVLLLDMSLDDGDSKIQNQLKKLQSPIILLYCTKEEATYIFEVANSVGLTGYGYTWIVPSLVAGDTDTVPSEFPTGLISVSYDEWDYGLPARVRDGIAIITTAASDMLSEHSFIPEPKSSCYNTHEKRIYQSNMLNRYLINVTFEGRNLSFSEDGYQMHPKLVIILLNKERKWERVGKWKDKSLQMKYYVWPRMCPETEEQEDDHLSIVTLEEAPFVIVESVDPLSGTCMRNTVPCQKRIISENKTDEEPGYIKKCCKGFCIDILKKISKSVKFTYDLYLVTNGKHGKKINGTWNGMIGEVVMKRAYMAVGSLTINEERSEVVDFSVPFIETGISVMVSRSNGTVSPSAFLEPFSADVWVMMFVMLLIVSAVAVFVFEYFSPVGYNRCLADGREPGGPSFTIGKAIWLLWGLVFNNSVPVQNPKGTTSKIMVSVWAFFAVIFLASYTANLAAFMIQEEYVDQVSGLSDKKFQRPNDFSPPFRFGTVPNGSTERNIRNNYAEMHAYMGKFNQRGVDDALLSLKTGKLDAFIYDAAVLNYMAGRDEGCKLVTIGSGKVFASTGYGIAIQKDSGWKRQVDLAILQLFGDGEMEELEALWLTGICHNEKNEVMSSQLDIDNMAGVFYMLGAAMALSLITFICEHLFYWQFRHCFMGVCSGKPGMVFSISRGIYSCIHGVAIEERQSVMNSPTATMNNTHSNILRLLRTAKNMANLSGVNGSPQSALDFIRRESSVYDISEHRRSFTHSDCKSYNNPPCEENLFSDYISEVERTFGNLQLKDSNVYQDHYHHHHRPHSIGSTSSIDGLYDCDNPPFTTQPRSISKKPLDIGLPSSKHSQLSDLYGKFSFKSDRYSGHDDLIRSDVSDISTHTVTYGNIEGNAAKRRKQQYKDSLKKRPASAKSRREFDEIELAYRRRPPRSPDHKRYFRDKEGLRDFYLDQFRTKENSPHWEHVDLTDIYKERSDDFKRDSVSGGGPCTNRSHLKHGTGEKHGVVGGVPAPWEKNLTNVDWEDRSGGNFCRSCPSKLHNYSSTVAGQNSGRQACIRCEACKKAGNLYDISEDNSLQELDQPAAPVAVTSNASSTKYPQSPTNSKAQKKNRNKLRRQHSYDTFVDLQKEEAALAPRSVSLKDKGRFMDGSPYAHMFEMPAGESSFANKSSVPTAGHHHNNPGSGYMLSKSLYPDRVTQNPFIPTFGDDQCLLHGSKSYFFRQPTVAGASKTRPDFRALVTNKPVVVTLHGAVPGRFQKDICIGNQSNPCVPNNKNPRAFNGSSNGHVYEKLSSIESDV
# Method: To investigate the effect of compounds 11–23 on the activity of NMDARs, electrophysiological measurements were performed on HEK293 cells that were co-transfected with cDNAs containing genes encoding for the rat GluN1-1a and GluN2B subunits. The degree of modulation (E; potentiation/inhibition) for the newly synthesized compounds was determined using the following formula: [drawing 1] where Ie is the value of the current amplitude during glutamate and compound coapplication, and Ia is the current amplitude value for glutamate application. […] The results are presented as mean ± standard error of the mean (SEM), with n equal to the number of independent measurements. One-way analysis of variance (ANOVA) was used for multiple comparisons (unless otherwise stated, a value of P ≤ 0.05 was used for the determination of significance).
# We have evaluated the relationship between oxime derivatives 11–23 and their modulatory effect on recombinant GluN1/GluN2B receptors. Due to the […] effect of neurosteroid-based PAMs at NMDARs[20,44]
# HEK293 cells (American Type Culture Collection, ATCC No. CRL-1573, Rockville, MD, USA) were cultured in Opti-MEM I (Invitrogen, Carlsbad, CA, USA) supplemented with 5% fetal bovine serum (FBS; PAN Biotech, Aidenbach, Germany) at 37 °C in 5% CO2. 24 h before transfection, HEK293 cells were plated in 24-well plates at a density of 2 × 10^5 cells per well. The next day, the cells were transfected with cDNA encoding rat GluN1-1a (GluN1; GenBank accession number U08261)[56] and GluN2B (GenBank accession number M91562)[57] subunits (in the pCI-neo expression vector), along with green fluorescent protein (GFP; in the pQBI 25 vector, Takara, Tokyo, Japan). Briefly, equal amounts (200 ng) of cDNAs encoding GluN1-1a, GluN2B, and GFP were mixed with 0.6 µl of Matra-A reagent (IBA, Gottingen, Germany) in 50 µL of Opti-MEM I and added to confluent HEK293 cells cultured in 24-well plates. After trypsinization, the cells were resuspended in Opti-MEM I containing 1% FBS, supplemented with 20 mM MgCl2, 1 mM D,L-2-amino-5-phosphonovaleric acid, 3 mM kynurenic acid, and 1 µM ketamine, and plated on 30 mm glass coverslips coated with collagen and poly-L-lysine. Transfected cells were identified by GFP epifluorescence. Electrophysiology experiments were performed 24–48 h after transfection.
# Whole-cell current recordings, voltage-clamped at a holding potential of −60 mV, were performed at room temperature using a patch-clamp amplifier (Axopatch 200B; Molecular Devices, Sunnyvale, CA, USA) after capacitance and series resistance (<10 MΩ) compensation (80–90%). NMDAR current responses were low-pass filtered at 2 kHz, digitally sampled at 5 kHz, and analysed using pClamp software (version 10.6; Molecular Devices). Patch pipettes (3–5 MΩ), pulled from borosilicate glass, were filled with an intracellular solution (ICS) containing (in mM): 15 CsCl, 10 BAPTA, 3 MgCl2, 1 CaCl2, 120 gluconic acid, 10 HEPES, and 2 ATP-Mg salt (pH adjusted to 7.2 with CsOH). The extracellular solution (ECS) contained (in mM): 160 NaCl, 2.5 KCl, 0.2 EDTA, 10 glucose, 10 HEPES, and 0.7 CaCl2 (pH adjusted to 7.3 with NaOH). NMDAR responses were induced by 1 µM glutamate and 30 µM glycine. 1% DMSO was present in all control and testing solutions. Solution applications were performed using a microprocessor-controlled multibarrel fast-perfusion system with a solution exchange rate around the cells of ∼10 ms.[58]
# [3] = in vitro; conditions: pH 7.4; for half-life at 10 µM: rat, microsomes; for Metabolic stability in rat liver microsomes: 1 h, 10 µM
# Method: The reactions were terminated by the addition of four volumes of ice-cold methanol, mixed vigorously, and left at −20 °C for 1h. After that, the samples were centrifuged and the supernatants were analysed by means of ECHO-MS® System (Sciex, Framingham, MA, USA). Zero time points were prepared by adding ice-cold methanol to the mixture of the compound with cofactors before the addition of microsomes. […] Intrinsic clearance (CLint) was calculated using the following formula: [drawing 4] where V is the incubation volume per milligram of microsomal protein (µL mg^−1) and t1/2 is the microsomal half-life.
# [4] = in vitro; conditions: pH 7.4; for PAMPA permeability Retention (mass retention): 5 h, 100 µM; for Papp at 5 h, 100 µM: PAMPA
# Method: Permeability was quantified using permeability coefficients (Pe) and mass retention, the latter representing the proportion of compound retained in the membrane.
# Permeation experiments were conducted in polystyrene 96-well filter plates with PVDF membrane pre-coated with structured layers of phospholipids (Corning Gentest™) according to the manufacturer's instructions. Briefly, the plate was warmed to room temperature, and meanwhile, the solutions of the compounds were diluted from 10 mM DMSO stocks to TRIS–HCl buffer pH 7.4 to reach a 100 µM final concentration. The DMSO concentration in the samples was 1%. Then, 300 µL of these solutions were transferred into the donor (receiver) plate wells, and 200 µL of the (TRIS) buffer was added to the acceptor (filter) plate wells. The filter plate and receiver plate were assembled and incubated for 5 h on an orbital shaker (300 rpm). After this, the concentration of the tested substances in both the donor and acceptor compartments was determined with use of LC/MS. Liquid chromatography was performed using an ExionLC AD pump and autosampler from Sciex (Framingham, MA, USA). […] The mobile phase flow rate was 300 µL min^−1. The column Synergi Fusion-RP from Phenomenex (Torrance, CA, USA) was used and was kept at 40 °C during the analysis.
smiles,measurement,setting,value
CC[C@@H](C)[C@H]1CCC2C3CC[C@@H]4C[C@H](OS(=O)(=O)O)CC[C@]4(C)C3CC[C@@]21C (stereo partly drawn) [Compound 1],IC50,"[1]; read-out: IC50, inhibition of currents of GluN1/GluN2B receptors",0.09 µM
C[C@@]12CCCC1C1CC[C@@H]3C[C@H](OC(=O)CCC(=O)O)CC[C@]3(C)C1CC2 (stereo partly drawn) [Compound 2],"Emax, potentiation of GluN1/GluN2B receptor responses",[1],452%
same,EC50,[1],7.4 µM
C[C@]12CC[C@H](OC(=O)CCCC(=O)O)CC1=CCC1C2CC[C@]2(C)C(=O)CCC12 (stereo partly drawn) [Compound 5],"Emax, potentiation of GluN1/GluN2B receptor responses",[1],154%
same,EC50,[1],151 µM
C[C@]12CC[C@H](OC(=O)CCCCC(=O)O)CC1=CCC1C2CC[C@]2(C)C(=O)CCC12 (stereo partly drawn) [Compound 6],"Emax, potentiation of GluN1/GluN2B receptor responses",[1],180%
same,EC50,[1],108 µM
C[C@]12CC[C@H](OC(=O)CCCCCC(=O)O)CC1=CCC1C2CC[C@]2(C)C(=O)CCC12 (stereo partly drawn) [Compound 7],"Emax, potentiation of GluN1/GluN2B receptor responses",[1],187%
same,EC50,[1],82 µM
C[C@]12CC[C@H](OC(=O)CCCCCCC(=O)O)CC1=CCC1C2CC[C@]2(C)C(=O)CCC12 (stereo partly drawn) [Compound 8],"Emax, potentiation of GluN1/GluN2B receptor responses",[1],189%
same,EC50,[1],49 µM
C[C@]12CC[C@H](OC(=O)CCCCCCCC(=O)O)CC1=CCC1C2CC[C@]2(C)C(=O)CCC12 (stereo partly drawn) [Compound 9],"Emax, potentiation of GluN1/GluN2B receptor responses",[1],226%
same,EC50,[1],32 µM
C[C@]12CC[C@H](OC(=O)CCCCCCCCC(=O)O)CC1=CCC1C2CC[C@]2(C)C(=O)CCC12 (stereo partly drawn) [Compound 10],"Emax, potentiation of GluN1/GluN2B receptor responses",[1],165%
same,EC50,[1],16 µM
"C/C(=N\OCCN1CCOCC1)[C@H]1CCC2C3CC=C4C[C@@H](OC(=O)CCCC(=O)O)CC[C@]4(C)C3CC[C@@]21C (stereo partly drawn) [Compound 13, 20-Oxo-pregn-5-en-3β-yl hemiglutarate O-(3-morpholinoethyl)oxime]",h ± SEM (apparent Hill coefficient),[2],2.8 ± 0.2
same,EC50,[2],34.7 ± 4.2 µM
same,Emax,[2],111 ± 11%
same,half-life at 10 µM,[3],> 1 h
same,PAMPA permeability Retention (mass retention),[4],95%
"CO/N=C(\C)[C@H]1CCC2C3CC=C4C[C@@H](OC(=O)CCCC(=O)O)CC[C@]4(C)C3CC[C@@]21C (stereo partly drawn) [Compound 17, 20-Oxo-pregn-5-en-3β-yl hemiglutarate O-methyloxime]",Potency relative to PES,[2]; EC50 compared with PES,over 3.5 fold
same,h ± SEM (apparent Hill coefficient),[2],1.6 ± 0.1
same,EC50,[2],6.1 ± 0.7 µM
same,Emax,[2],503 ± 85%
same,half-life at 10 µM,[3],> 1 h
same,PAMPA permeability Retention (mass retention),[4],95%
same,"Papp at 5 h, 100 µM",[4],5.5 ×10⁻⁶ cm/s
"CCCO/N=C(\C)[C@H]1CCC2C3CC=C4C[C@@H](OC(=O)CCCC(=O)O)CC[C@]4(C)C3CC[C@@]21C (stereo partly drawn) [Compound 18, 20-Oxo-pregn-5-en-3β-yl hemiglutarate O-propyloxime]",Modulatory profile at NMDARs,[2],"not identified as PAMs; also recorded: complex, concentration-dependent activity profile"
same,inhibition at 3 µM,[2],7%
same,PAM effect (degree of potentiation),[2]; at 10 µM compound,75 ± 21%
same,PAM effect (degree of potentiation),[2]; at 30 µM compound,108 ± 17%
same,half-life at 10 µM,[3],> 1 h
same,PAMPA permeability Retention (mass retention),[4],100%
"C/C(=N\OC(C)C)[C@H]1CCC2C3CC=C4C[C@@H](OC(=O)CCCC(=O)O)CC[C@]4(C)C3CC[C@@]21C (stereo partly drawn) [Compound 19, 20-Oxo-pregn-5-en-3β-yl hemiglutarate O-isopropyloxime]",Modulatory profile at NMDARs,[2],"not identified as PAMs; also recorded: complex, concentration-dependent activity profile"
same,inhibition at 3 µM,[2],27%
same,PAM effect (degree of potentiation),[2]; at 10 µM compound,81 ± 20%
same,PAM effect (degree of potentiation),[2]; at 30 µM compound,169 ± 55%
same,Metabolic stability in rat liver microsomes,[3],no detectable metabolism after 60 min
same,half-life at 10 µM,[3],> 1 h
same,PAMPA permeability Retention (mass retention),[4],99%
"C=CCO/N=C(\C)[C@H]1CCC2C3CC=C4C[C@@H](OC(=O)CCCC(=O)O)CC[C@]4(C)C3CC[C@@]21C (stereo partly drawn) [Compound 20, 20-Oxo-pregn-5-en-3β-yl hemiglutarate O-(2-propenyl)oxime]",h ± SEM (apparent Hill coefficient),[2],2.0 ± 0.2
same,EC50,[2],12.6 ± 2.9 µM
same,Emax,[2],317 ± 43%
same,Metabolic stability in rat liver microsomes,[3],no detectable metabolism after 60 min
same,half-life at 10 µM,[3],> 1 h
same,PAMPA permeability Retention (mass retention),[4],99%
same,"Papp at 5 h, 100 µM",[4],7.24 ×10⁻⁶ cm/s
"C/C(=N\OCc1ccccc1)[C@H]1CCC2C3CC=C4C[C@@H](OC(=O)CCCC(=O)O)CC[C@]4(C)C3CC[C@@]21C (stereo partly drawn) [Compound 21, 20-Oxo-pregn-5-en-3β-yl hemiglutarate O-(phenylmethyl)oxime]",h ± SEM (apparent Hill coefficient),[2],1.7 ± 0.3
same,EC50,[2],11.3 ± 2 µM
same,Emax,[2],403 ± 56%
same,Metabolic stability in rat liver microsomes,[3],no detectable metabolism after 60 min
same,half-life at 10 µM,[3],> 1 h
same,PAMPA permeability Retention (mass retention),[4],95%
same,"Papp at 5 h, 100 µM",[4],1.82 ×10⁻⁶ cm/s
